ChEMBL document CHEMBL1201862, “PubChem BioAssay data set” (2004)
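Each compound was tested at five concentrations against cells in 96-well plates for 48 hours. Here, GI50 denotes the concentration required for 50% inhibition of growth.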 Active and inactive are the calls of the source. No stated cut-off is given here; in the data, active = GI50 up to about 1.1 µM and inactive = higher.

How the values were obtained:
Assay in all cases: DTP human tumour cell line panel, 48 h
[1] = test system: CAKI-1
[2] = test system: COLO 205
[3] = test system: HCT-116
[4] = test system: HL-60
[5] = test system: HT-29
[6] = test system: MDA-MB-231
[7] = test system: MOLT-4
[8] = test system: NCI/ADR-RES
[9] = test system: OVCAR-3
[10] = test system: OVCAR-4
[11] = test system: OVCAR-5
[12] = test system: OVCAR-8
[13] = test system: PC-3
[14] = test system: RXF 393
[15] = test system: SF-295
[16] = test system: SNB-19
[17] = test system: CCRF-CEM
[18] = test system: HCC 2998
[19] = test system: SF-539
[20] = test system: SNB-75

Measured: GI50

CCC1c2[nH]c3ccccc3c2C[C@H]2C(=O)NC(Cc3c[nH]c4ccccc34)C(=O)N12 (stereo partly specified)
inactive: [1] 28.8 µM | [2] 18.8 µM | [3] 18 µM | [4] 19.2 µM | [5] 24.2 µM | [6] 17.1 µM | [7] 15.9 µM | [8] 27.9 µM | [9] 18.2 µM | [10] 29.9 µM | [11] 25.8 µM | [12] 32.7 µM | [13] 18.7 µM | [14] 17.4 µM | [15] 17.3 µM | [16] 37.5 µM

Cc1cc(=O)oc2c(OS(C)(=O)=O)c(OS(C)(=O)=O)ccc12
inactive: [1] > 100 µM | [17] > 100 µM | [2] > 100 µM | [18] > 100 µM | [3] > 100 µM | [4] > 100 µM | [5] > 100 µM | [6] > 100 µM | [7] > 100 µM | [8] > 100 µM | [9] > 100 µM | [10] > 100 µM | [11] > 100 µM | [12] > 100 µM | [13] > 100 µM | [15] > 100 µM | [19] > 100 µM | [16] > 100 µM

Cc1ccc(C)c(NC(=O)NCc2ccc(Cl)cc2)c1
inactive: [1] 27.2 µM | [17] 8.51 µM | [2] > 100 µM | [3] 35.3 µM | [4] > 100 µM | [5] > 100 µM | [6] 20 µM | [8] > 58.1 µM | [9] 28.5 µM | [10] 20.1 µM | [11] 56.1 µM | [12] 34.9 µM | [13] > 100 µM | [14] 8.89 µM | [15] 16.7 µM | [19] > 100 µM | [16] > 23.3 µM | [20] 2.24 µM

Cn1c(C(C)(C)OC(=O)Oc2ccccc2)cnc1[N+](=O)[O-]
inactive: [1] > 100 µM | [2] 71.1 µM | [3] 92.5 µM | [4] 36.5 µM | [5] 34 µM | [6] 26.1 µM | [7] 16.7 µM | [8] > 100 µM | [9] 93.5 µM | [10] 38.7 µM | [11] > 100 µM | [12] 70.6 µM | [13] > 100 µM | [14] > 100 µM | [15] > 100 µM | [19] > 100 µM | [16] > 100 µM | [20] > 100 µM

CCOC(=O)CSc1nnc2cc(CN3CCCC3)c(-c3ccc(Cl)cc3)nn12
inactive: [1] > 100 µM | [17] 48.1 µM | [2] > 100 µM | [3] > 100 µM | [4] 89.3 µM | [5] 74.5 µM | [6] > 100 µM | [7] 38.5 µM | [8] > 100 µM | [9] > 100 µM | [10] 33.6 µM | [11] > 100 µM | [12] > 100 µM | [13] > 100 µM | [14] 86.5 µM | [15] > 100 µM | [19] 60.1 µM | [16] > 100 µM | [20] 85.5 µM

C=C1CCC2CC1C(C(=O)c1c[nH]c3ccccc13)=NC2(C)C (stereo unspecified)
inactive: [1] > 100 µM | [17] > 100 µM | [2] > 100 µM | [18] > 100 µM | [3] > 100 µM | [4] > 100 µM | [5] > 100 µM | [6] > 100 µM | [7] > 100 µM | [8] > 100 µM | [9] > 100 µM | [10] > 100 µM | [11] > 100 µM | [12] > 100 µM | [13] > 100 µM | [19] > 100 µM | [16] > 100 µM | [20] > 100 µM

Oc1ccc(Cc2cc(Cc3ccc(O)cc3)cc(Cc3ccc(O)cc3)c2)cc1
inactive: [18] > 50 µM | [3] > 50 µM | [4] > 50 µM | [5] > 50 µM | [6] > 50 µM | [7] > 50 µM | [8] > 50 µM | [9] > 50 µM | [10] > 50 µM | [11] > 50 µM | [12] > 50 µM | [13] > 50 µM | [15] > 50 µM | [19] > 50 µM | [16] > 50 µM | [20] > 50 µM

NCCCC(N)C(=O)O (stereo unspecified)
inactive: [1] > 100 µM | [17] > 100 µM | [2] > 100 µM | [3] > 100 µM | [4] > 100 µM | [5] > 100 µM | [6] > 100 µM | [7] > 100 µM | [8] > 100 µM | [9] > 100 µM | [10] > 100 µM | [11] > 100 µM | [12] > 100 µM | [13] > 100 µM | [14] > 100 µM | [15] > 100 µM | [16] > 100 µM | [20] > 100 µM
